Assays:
[1] = AUC (0-24h) of aliskiren hemifumarate following 4 week oral dietary dosing of aliskiren hemifumarate at 1500 mg.Kg-1 level in female mouse; assay type: ADME, organism-based; conditions: CB6F1-TGrasH2, mouse, plasma
[2] = Cmax of aliskiren hemifumarate following 2 week oral dosing of aliskiren hemifumarate at 10 mg.Kg-1 level studied on […] in male Callithrix jacchus; assay type: ADME, organism-based; conditions: marmoset, plasma
[3] = Tmax of aliskiren hemifumarate following repeated oral administration of [14C] aliskiren hemifumarate at 100 mg.Kg-1 level studied after 2h of dosing on day 1 in rat; assay type: ADME, organism-based, Albino HAN:WIST; conditions: in vivo
[4] = Cmaxspec of aliskiren hemifumarate following 2 week oral dosing of aliskiren hemifumarate at 50 mg.Kg-1 level studied on day 14 in female Callithrix jacchus; assay type: ADME, organism-based, Plasma; conditions: marmoset, in vivo, 336 h
[5] = AUC/dose (0-96h) of unlabeled aliskiren hemifumarate following intravenous administration of aliskiren hemifumarate at 10 mg.Kg-1 level in rat; assay type: ADME, organism-based, Albino HAN:WIST, Plasma; conditions: in vivo
[6] = t1/2 of aliskiren hemifumarate following 2 week oral dosing of aliskiren hemifumarate at 10 mg.Kg-1 level studied on […] in male Callithrix jacchus; assay type: ADME, organism-based; conditions: marmoset, plasma
[7] = Tmax of aliskiren hemifumarate following 2 week oral dosing of aliskiren hemifumarate at 10 mg.Kg-1 level studied on day 14 in female Callithrix jacchus; assay type: ADME, organism-based; conditions: marmoset, plasma
[8] = Effect of 2 week oral dosing of aliskiren hemifumarate at 100 mg.Kg-1 level on plasma magnesium level in female Callithrix jacchus; assay type: toxicity, organism-based; conditions: marmoset, 336 h
[9] = AUC(0-24h) of aliskiren hemifumarate following 2 week oral dosing of aliskiren hemifumarate at 50 mg.Kg-1 level studied on day 1 in female Callithrix jacchus; assay type: ADME, organism-based; conditions: marmoset, plasma
[10] = AUCspec of aliskiren hemifumarate following 2 week oral dosing of aliskiren hemifumarate at 50 mg.Kg-1 level studied on day 1 in male Callithrix jacchus; assay type: ADME, organism-based, Plasma; conditions: marmoset, in vivo, 336 h
[11] = Tmax of aliskiren hemifumarate following 2 week oral dosing of aliskiren hemifumarate at 100 mg.Kg-1 level studied on day 14 in female Callithrix jacchus; assay type: ADME, organism-based; conditions: marmoset, plasma
[12] = Elimination half-life of aliskiren hemifumarate following repeated oral administration of [14C] aliskiren hemifumarate at 100 mg.Kg-1 level studied in rat; assay type: ADME, organism-based, Albino HAN:WIST; conditions: in vivo
CYP1A2 [13] = target: T1, CYP1A2 (Homo sapiens, UniProt P05177); test: Inhibitory activity of 200 uM SPP100 on 548 Pmoles of cDNA-derived CYP1A2 enzyme in microsome prepared from human lymphoblastoid cell line; assay type: ADME, microsomes; parameters: conc 200 uM, interact cpd conc 50 uM; conditions: probe phenacetin
T1 sequence (P05177 whole entry): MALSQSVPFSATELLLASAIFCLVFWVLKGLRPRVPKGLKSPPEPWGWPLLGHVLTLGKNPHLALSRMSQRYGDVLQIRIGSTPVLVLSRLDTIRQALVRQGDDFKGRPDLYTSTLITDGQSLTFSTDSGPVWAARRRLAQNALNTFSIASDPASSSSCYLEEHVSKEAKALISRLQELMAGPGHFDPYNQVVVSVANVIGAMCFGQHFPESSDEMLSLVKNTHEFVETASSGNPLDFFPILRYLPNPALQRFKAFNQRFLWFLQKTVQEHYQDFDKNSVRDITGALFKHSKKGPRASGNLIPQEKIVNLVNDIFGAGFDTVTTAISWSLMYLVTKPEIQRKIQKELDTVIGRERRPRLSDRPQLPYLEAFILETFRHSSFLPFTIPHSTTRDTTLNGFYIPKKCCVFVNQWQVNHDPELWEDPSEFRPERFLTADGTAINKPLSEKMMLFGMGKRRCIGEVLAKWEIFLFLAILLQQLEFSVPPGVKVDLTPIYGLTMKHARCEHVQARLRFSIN

CYP1A2 [14] = target: T1, CYP1A2; test: Inhibition of CYP1A2 in human liver microsomes from 10 healthy donors at 200 uM aliskiren (SPP100); assay type: ADME, Microsome; parameters: conc 200 uM; conditions: probe phenacetin (O-deethylation)
CYP2C9 [15] = target: T2, CYP2C9 (Homo sapiens, UniProt P11712); test: Inhibitory activity of 20 uM SPP100 on 258 Pmoles of cDNA-derived CYP2C9 enzyme in microsome prepared from human lymphoblastoid cell line; assay type: ADME, microsomes; parameters: conc 20 uM, interact cpd conc 6 uM; conditions: probe diclofenac
[16] = Terminal elimination half-life of SPP100 following single oral dose of SPP100 300 mg capsule studied in healthy human; assay type: ADME, organism-based; conditions: plasma
[17] = % SPP100 (0-168h) recovered in urine following single intravenous dose of [14C] aliskiren hemifumarate at 1 mg.Kg-1 level in marmoset; assay type: ADME, organism-based, Callithrix jacchus; conditions: in vivo
[18] = % SPP100 (0-72h) recovered in faeces following single oral dose of [14C] aliskiren hemifumarate at 3 mg.Kg-1 level in marmoset; assay type: ADME, organism-based, Callithrix jacchus, Feces; conditions: in vivo
CYP2C9 [19] = target: T2, CYP2C9; test: Inhibitory activity of 20 uM SPP100 on 227 Pmoles of cDNA-derived CYP2C9 enzyme in microsome prepared from human lymphoblastoid cell line; assay type: ADME, microsomes; parameters: conc 20 uM, interact cpd conc 6 uM; conditions: probe diclofenac
CYP2C19 = CYP2C19 (Homo sapiens, UniProt P33261); test: Inhibitory activity of 200 uM SPP100 on 1077 Pmoles of cDNA-derived CYP2C19 enzyme in microsome prepared from human lymphoblastoid cell line; assay type: ADME, microsomes; parameters: conc 200 uM, interact cpd conc 50 uM; conditions: probe (S)-mephenytoin (50 uM)
[20] = Excretion (0-24h) of radioactivity in faeces following intravenous administration of [14C] aliskiren hemifumarate at 1 mg.Kg-1 level in marmoset; assay type: ADME, organism-based, Callithrix jacchus, Feces; conditions: in vivo
[21] = Total excretion of radioactivity following oral administration of [14C] aliskiren hemifumarate at 3 mg.Kg-1 level in marmoset; assay type: ADME, organism-based, Callithrix jacchus, Urine/Feces; conditions: in vivo
[22] = Excretion (0-24h) of radioactivity in faeces following oral administration of [14C] aliskiren hemifumarate at 3 mg.Kg-1 level in marmoset; assay type: ADME, organism-based, Callithrix jacchus, Feces; conditions: in vivo
[23] = Cmax of [14C] aliskiren hemifumarate following single intravenous dose of [14C] aliskiren hemifumarate at 10 mg.Kg-1 level in mouse; assay type: ADME, organism-based, TgRasH2, Plasma; conditions: in vivo
[24] = Plasma concentration of [14C] aliskiren hemifumarate in first 4h following single intravenous […] dose of [14C] aliskiren hemifumarate at 10 mg.Kg-1 level in mouse; assay type: ADME, organism-based, TgRasH2; conditions: in vivo
[25] = Concentration of radioactivity in carcass following oral administration of [14C] aliskiren hemifumarate at 100 mg.Kg-1 level measured on day 7 in rat; assay type: ADME, organism-based, Lister-Hooded; conditions: in vivo
[26] = Excretion (0-96h) of 14C-radioactivity in urine following single oral dose of 300 mg [14C]SPP100 studied in healthy men; assay type: ADME, organism-based; conditions: human, in vivo, at 300 mg
[27] = Mean excretion of radioactivity (48-72h) in urine and faeces following single intravenous dose of 10 mg.Kg-1 [14C] aliskiren hemifumarate in mouse; assay type: ADME, organism-based, TgRasH2, Urine/Feces; conditions: in vivo
[28] = Cmax (0-168h) of total radioactivity following single intravenous administration of [14C] aliskiren hemifumarate at 1 mg.Kg-1 level in marmoset; assay type: ADME, organism-based, Callithrix jacchus, Plasma; conditions: in vivo
[29] = Excretion (0-24h) of radioactivity in urine following intravenous administration of [14C] aliskiren hemifumarate at 1 mg.Kg-1 level in marmoset; assay type: ADME, organism-based, Callithrix jacchus; conditions: in vivo
[30] = Cmax (0-96h) of total radioactivity following oral administration of [14C] aliskiren hemifumarate at 100 mg.Kg-1 level in rat; assay type: ADME, organism-based, Albino HAN:WIST, Plasma; conditions: in vivo
[31] = Excretion of radioactivity (0-72h) in faeces following single intravenous dose of 10 mg.Kg-1 [14C] aliskiren hemifumarate in mouse; assay type: ADME, organism-based, TgRasH2, Feces; conditions: in vivo
[32] = Excretion (24h) of radioactivity in faeces following intravenous administration of [14C] aliskiren hemifumarate at 10 mg.Kg-1 level in rat; assay type: ADME, organism-based, Lister-Hooded, Feces; conditions: in vivo

T2 sequence (P11712 whole entry): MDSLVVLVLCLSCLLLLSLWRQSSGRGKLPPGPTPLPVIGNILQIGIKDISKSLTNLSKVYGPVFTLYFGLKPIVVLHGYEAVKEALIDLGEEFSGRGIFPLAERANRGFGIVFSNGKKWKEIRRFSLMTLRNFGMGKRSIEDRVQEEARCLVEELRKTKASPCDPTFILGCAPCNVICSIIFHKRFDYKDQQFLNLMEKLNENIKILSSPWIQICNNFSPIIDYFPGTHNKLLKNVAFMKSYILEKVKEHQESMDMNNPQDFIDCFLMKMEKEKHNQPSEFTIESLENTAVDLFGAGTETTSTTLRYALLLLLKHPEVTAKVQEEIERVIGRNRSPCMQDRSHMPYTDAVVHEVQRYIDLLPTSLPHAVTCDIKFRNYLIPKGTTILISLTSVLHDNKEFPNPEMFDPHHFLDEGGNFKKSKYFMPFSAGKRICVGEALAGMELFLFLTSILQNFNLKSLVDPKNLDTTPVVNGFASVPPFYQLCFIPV
Sequence of CYP2C19 (P33261 whole entry): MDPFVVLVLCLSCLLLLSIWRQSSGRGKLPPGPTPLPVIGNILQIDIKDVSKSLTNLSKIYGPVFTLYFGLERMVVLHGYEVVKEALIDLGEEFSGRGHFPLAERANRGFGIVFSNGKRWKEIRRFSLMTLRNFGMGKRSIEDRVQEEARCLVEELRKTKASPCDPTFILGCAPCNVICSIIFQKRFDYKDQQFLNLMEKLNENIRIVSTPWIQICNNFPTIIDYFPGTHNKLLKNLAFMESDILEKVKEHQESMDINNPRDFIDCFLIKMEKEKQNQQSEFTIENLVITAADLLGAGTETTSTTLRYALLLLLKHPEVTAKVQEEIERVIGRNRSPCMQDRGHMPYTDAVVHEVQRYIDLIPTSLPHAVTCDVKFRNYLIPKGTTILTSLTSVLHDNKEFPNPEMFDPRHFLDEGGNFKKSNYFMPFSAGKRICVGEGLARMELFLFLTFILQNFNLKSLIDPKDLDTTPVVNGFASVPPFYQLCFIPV

Question: Which results are given for COCCCOc1cc(C[C@@H](C[C@H](N)[C@@H](O)C[C@H](C(=O)NCC(C)(C)C(N)=O)C(C)C)C(C)C)ccc1OC.COCCCOc1cc(C[C@@H](C[C@H](N)[C@@H](O)C[C@H](C(=O)NCC(C)(C)C(N)=O)C(C)C)C(C)C)ccc1OC.O=C(O)/C=C/C(=O)O [ALISKIREN FUMARATE]?
Answer: AUC(0-t) at 24 h [1]: 5470 ng·h/mL; Cmax [2]: 5770 ng/mL; Tmax(1) [3]: 2 h; Cmax normalised [4]: 0.202 (ug/ml)/(mg/kg); AUC normalised [5]: 1.26 (umol.h/L)/(mg/kg); half-life [6]: 338 min; Tmax [7]: 1 h; Plasma magnesium_CHANGE_BY [8]: 130%; AUC(0-t) at 24 h [9]: 56200 ng·h/mL; AUC normalised [10]: 1.16 ((ug.h.ml-1)/(mg/kg); Tmax [11]: 2 h; t1/2 [12]: 39.5 h

Question: What does the source list for COCCCOc1cc(C[C@@H](C[C@H](N)[C@@H](O)C[C@H](C(=O)NCC(C)(C)C(N)=O)C(C)C)C(C)C)ccc1OC?
Answer: inhibition at 200 µM (CYP1A2 [13]): -6.4%; inhibition at 200 µM (CYP1A2 [14]): 15.2%; inhibition at 20 µM (CYP2C9 [15]): 1.3%; half-life [16]: 2220 min; Compound recovery [17]: 3%; Compound recovery [18]: 78%; inhibition at 20 µM (CYP2C9 [19]): 13.1%; inhibition at 200 µM (CYP2C19): 9.6%

Question: Which Radiolabel recovery [20] does the source give for COCCCOc1cc(C[C@@H](C[C@H](N)[C@@H](O)C[C@H](C(=O)NCC([14CH3])([14CH3])C(N)=O)C(C)C)C(C)C)ccc1OC.O=C(O)/C=C/C(=O)O here?
Answer: Its Radiolabel recovery is 51.5%.

Question: What about the Radiolabel recovery [21] of the same compound?
Answer: Its Radiolabel recovery is 104%.

Question: What about the Radiolabel recovery [22] of the same compound?
Answer: Its Radiolabel recovery is 84%.

Question: And the Cmax [23]?
Answer: Its Cmax is 14.6 µM.

Question: What about the Compound recovery [24] of the same compound?
Answer: The Compound recovery was 94%.

Question: And the Radiolabel recovery [25]?
Answer: The Radiolabel recovery was “OUTCOME = Observed, VALUE = residues of radioactivity remained in the carcass at 7 days after dosing”.

Question: What about the Radiolabel recovery [26] of the same compound?
Answer: Its Radiolabel recovery is 0.57%.

Question: And the Radiolabel recovery [27]?
Answer: Its Radiolabel recovery is 0.9%.

Question: And the Cmax [28]?
Answer: The Cmax was 11.4 µM.

Question: What about the Radiolabel recovery [29] of the same compound?
Answer: The Radiolabel recovery was 0.61%.

Question: What about the Cmax [30] of the same compound?
Answer: Its Cmax is 0.416 µM.

Question: What about the Cmax ([30]; iv, 10 mg/kg) of the same compound?
Answer: Its Cmax is 21.2 µM.

Question: What about the Radiolabel recovery [31] of the same compound?
Answer: The Radiolabel recovery was 91.1%.

Question: What about the Radiolabel recovery [32] of the same compound?
Answer: The Radiolabel recovery was 66%.

Reference: ChEMBL document CHEMBL3508693 (2016)
